# Laboratory results: patent US20070149481A1, “N,n-bridged, nitrogen-substituted carbacyclic indolocarbazoles as protein kinase inhibitors” (priority 2002, published 2007)
# Several values for one entry are separate records, joined by “and”; a condition that tells them apart may be missing. Equal values may be shown once.
# Assays:
# His tagged ERK2 = His tagged ERK2 (Homo sapiens, UniProt P28482); test: Extracellular signal Regulated Kinase 2 inhibition assay (ERK2), radioactive filtermat format; format: biochemical; settings: 10 μM compound
# Sequence of His tagged ERK2 (P28482 whole entry): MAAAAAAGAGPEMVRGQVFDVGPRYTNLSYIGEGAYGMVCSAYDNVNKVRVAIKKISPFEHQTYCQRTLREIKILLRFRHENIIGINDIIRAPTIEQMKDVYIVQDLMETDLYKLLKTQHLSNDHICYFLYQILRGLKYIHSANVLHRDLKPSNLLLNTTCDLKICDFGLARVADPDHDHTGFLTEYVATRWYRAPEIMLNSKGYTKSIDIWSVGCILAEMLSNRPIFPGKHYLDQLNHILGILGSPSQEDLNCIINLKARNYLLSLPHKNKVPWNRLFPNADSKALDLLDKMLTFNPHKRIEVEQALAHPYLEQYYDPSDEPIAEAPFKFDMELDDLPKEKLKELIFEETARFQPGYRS
# Method: (§1) The ERK2 kinase activity assay utilizes a radioactivity-based format in a 96-well PCR plate with radioactive readout. The ERK2 activity was assayed in a 25 μL assay mixture containing 25 mM HEPES (pH 7.0), 250 μM ATP, 1 mM MgCl2, 1 mM DTT, 2% DMSO, 150 ng/mL Myelin Basic Protein (MBP, Sigma M-1891), and 13.6 ng/mL His tagged ERK2 (specific activity=38.1 nmol/min*mg). Compounds were screened for inhibition of the ERK2 kinase activity at a concentration of 10 μM. The kinase reaction was allowed to proceed at 37° C. for 30 minutes, then reaction was stopped by the addition of 5 μl of 0.5M EDTA (pH 8). 15 μL of each solution were then spotted onto the corresponding square of a filtermat (8×12 glassfibre mat 90×120 mm, PE-Wallac 1450-421). The filtermat was allowed to dry and washed once with 10% TCA, 2% PPA, 500 mM NaCl each for 30 minutes at rt. Two further washings in 10% TCA and 2% PPA for 30 minutes were performed, then a final 30 minute wash in 99% EtOH at rt was done and the filtermat was air dried. The dry filtermat was then placed in a sample bag with a Meltilex sheet (Melt-on scintillator sheets 73×109 mm, PE-Wallac 1450-441 for filtermat A) over the filtermat. The bag was trimmed to fit into the microplate heatsealer (PE-Wallac 1495-021). The heatsealer is used to melt the Meltilex on the filtermat. The bag containing the filtermat and the melted Meltilex was then placed into a filter cassette and counted using the Microbeta Jet Scintillation and Luminescence Counter PE-Wallac 1450.
# PKC (rat brain) = test: Protein Kinase C inhibition assay (PKC); format: biochemical; settings: 10 μM compound
# Method: as §1
# The PKC kinase activity assay utilizes a radioactivity-based format in a 96-well PCR plate with radioactive readout. The PKC activity was assayed in a 25 μL assay mixture containing 25 mM HEPES (pH 7.0), 250 μM ATP, 10 mM MgCl2, 1 mM DTT, 1 mM EDTA (pH 8), 2 mM CaCl2, 2% DMSO, 250 ng/mL Histone H1 (Roche 1 004 875), and 165 ng/mL PKC (rat brain, Calbiochem 539494, specific activity=1600 nmol/min*mg). Compounds were screened for inhibition of the PKC kinase activity at a concentration of 10 μM. The kinase reaction was allowed to proceed at 37° C. for 30 minutes, then the reaction was stopped by addition of 5 μL of 0.5M EDTA (pH 8). The remainder of the protocol is identical to the one reported for ERK2.
# [1] = target: T1, PKA (catalytic subunit, bovine heart) (Bos taurus, UniProt P00517); test: Protein Kinase A inhibition assay (PKA); format: biochemical; settings: 10 μM compound
# T1 construct: PKA (catalytic subunit, bovine heart, Calbiochem 539486); purchased Calbiochem 539486; host or cells: bovine heart (tissue-derived)
# Method: as §1
# The PKA kinase activity assay utilizes a radioactivity-based format in a 96-well PCR plate with radioactive readout. The PKA activity was assayed in a 25 μL assay mixture containing 25 mM HEPES (pH 7.0), 250 μM ATP, 10 mM MgCl2, 1 mM DTT, 1 mM EDTA (pH 8). 2% DMSO. 250 ng/mL Histone H2B (Roche 223 514), and 2 ng/mL PKA (catalytic subunit, bovine heart, Calbiochem 539486, specific activity=1170 pmol/min*μg). Compounds were screened for inhibition of the PKA kinase activity at a concentration of 10 μM. The kinase reaction was allowed to proceed at 37° C. for 30 minutes, then the reaction was stopped by addition of 5 μL of 0.5M EDTA (pH 8). The remainder of the protocol is identical to the one reported for ERK2.
# GSK3β = target: T2, GSK3β (Homo sapiens, UniProt P49841); test: Glycogen Synthase Kinase 3β inhibition assay (GSK3β); format: biochemical; settings: 10 μM compound
# T2 construct: purchased Upstate Discovery
# T2 sequence (P49841 whole entry, species assumed): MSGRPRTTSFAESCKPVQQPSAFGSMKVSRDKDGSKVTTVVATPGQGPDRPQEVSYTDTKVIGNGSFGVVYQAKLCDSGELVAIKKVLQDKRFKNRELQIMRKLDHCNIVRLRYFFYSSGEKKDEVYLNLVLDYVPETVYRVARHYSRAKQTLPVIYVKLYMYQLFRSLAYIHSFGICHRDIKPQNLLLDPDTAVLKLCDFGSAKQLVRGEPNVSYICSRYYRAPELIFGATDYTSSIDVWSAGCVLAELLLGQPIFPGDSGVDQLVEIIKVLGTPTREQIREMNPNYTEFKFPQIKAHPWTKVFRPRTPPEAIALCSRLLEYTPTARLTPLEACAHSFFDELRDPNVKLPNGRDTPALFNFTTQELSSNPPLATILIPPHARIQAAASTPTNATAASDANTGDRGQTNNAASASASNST
# Method: The GSK3β kinase activity assay utilizes a radioactivity-based format in a 96-well PCR plate with radioactive readout. The GSK3 β activity was assayed in a 25 μL assay mixture containing 8 mM HEPES (pH 7.0), 250 μM ATP, 0.2 mM EDTA (pH 8), 2% DMSO, 250 ng/mL Myelin Basic Protein (MBP, Sigma M-1891), and 12 ng/mL GSK3β (Upstate Discovery, specific activity=607 nmol/min*GS2 peptide, concentration of 6.05 mg/mL). Compounds were screened for inhibition of the GSK3β kinase activity at a concentration of 10 μM. The kinase reaction was allowed to proceed at 37° C. for 30 minutes, then the reaction was stopped by addition of 5 μL of 0.5M EDTA (pH 8).
# [2] = Solubility of free base NAD0241 and its hydrochloride salt in 99/1 water/DMSO; format: physicochemical; settings: 18 hours equilibration at room temperature, duplicate experiments
# Method: Stock solutions of NAD0241 (100 mM) and of its hydrochloride salt ([…]) in DMSO (UV-grade) were prepared freshly before the experiment and further diluted to a final concentration of 10 mM. These stock solutions in 100% DMSO were diluted with water (UV grade) to provide five 99/1 water/DMSO samples with varying concentrations of the compound (1000, 500, 100, 50 and 10 μM).
# Each sample was thoroughly mixed by rigorous vortexing (30 seconds) followed by equilibration for 18 hours at room temperature. A […] for each sample was transferred into 1.5 mL polypropylene tubes and centrifuged for 30 minutes at room temperature at 16000 g in a fixed angle tabletop centrifuge (Heraeus Biofuge pico equipped with #3325 rotor). The supernatant was pipetted into a quartz glass cuvette and UV-absorption (322 nm) was measured in a UV spectrophotometer (Varian Cary 50). Each experiment was run in duplicate.
SMILES,% Inhibition ERK2 (His tagged ERK2) [%],% Inhibition PKC (PKC (rat brain)) [%],% Inhibition PKA [1] [%],% Inhibition GSK3β (GSK3β) [%],inhibition at 10 µM (His tagged ERK2) [%],inhibition at 10 µM [1] [%],inhibition at 10 µM (GSK3β) [%],solubility limit in water containing 1% DMSO [2]
N#CC1(NC(=O)C(F)(F)F)CC2CC1n1c3ccccc3c3c4c(c5c6ccccc6n2c5c31)C(=O)NC4=O (stereo not drawn) [Compound 32],44.03,49.33,23.81,72.20,–,–,–,–
CCOC(=O)[C@]1(N)CC2CC1n1c3ccccc3c3c4c(c5c6ccccc6n2c5c31)C(=O)N(Cc1ccc(OC)cc1)C4=O (stereo partly drawn) [Compound 35],–,28.47,–,–,63.8,< 10,< 10,–
COc1ccc(CN2C(=O)c3c(c4c5ccccc5n5c4c4c3c3ccccc3n4C3CC5C(N)(C(=O)O)C3)C2=O)cc1 (stereo not drawn) [Compound 36],73.44,65.10,21.80,82.71,–,–,–,–
NC1(C(=O)NCCO)CC2CC1n1c3ccccc3c3c4c(c5c6ccccc6n2c5c31)C(=O)N(CCO)C4=O (stereo not drawn) [Compound 37],35.09,53.92,19.81,80.46,–,–,–,–
CCNC(=O)C1(N)CC2CC1n1c3ccccc3c3c4c(c5c6ccccc6n2c5c31)C(=O)NC4=O (stereo not drawn) [Compound 41],72.93,83.88,86.43,95.80,–,–,–,–
Cl.NC(=O)C1(N)CC2CC1n1c3ccccc3c3c4c(c5c6ccccc6n2c5c31)C(=O)NC4=O (stereo not drawn) [NAD0241-hydrochloride salt],–,–,–,–,–,–,–,170 mgL^−1 and 214 mgL^−1
